These results are taken from patent US20140120087A1, “TRIAZOLOPYRIDINES” (BAYER INTELLECTUAL PROPERTY GMBH, priority 2011, published 2014).

Data set [1] in a line: Hydrolytic stability assay at pH 2. It counts as physicochemical. The note with it: buffer pH 2, 37° C., compounds of the invention. An outline of the steps: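 Compound from a 10 mM DMSO stock was diluted in acetonitrile, added to pH 2 buffer and incubated at 37° C. HPLC injections were made at time zero and after 1, 2 and 24 hrs. Decay (%) was calculated from peak areas relative to the time-zero injection.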

The target in data set [2] is T1, Mps-1 kinase (Homo sapiens, UniProt P33981).
T1 sequence (P33981 1-857): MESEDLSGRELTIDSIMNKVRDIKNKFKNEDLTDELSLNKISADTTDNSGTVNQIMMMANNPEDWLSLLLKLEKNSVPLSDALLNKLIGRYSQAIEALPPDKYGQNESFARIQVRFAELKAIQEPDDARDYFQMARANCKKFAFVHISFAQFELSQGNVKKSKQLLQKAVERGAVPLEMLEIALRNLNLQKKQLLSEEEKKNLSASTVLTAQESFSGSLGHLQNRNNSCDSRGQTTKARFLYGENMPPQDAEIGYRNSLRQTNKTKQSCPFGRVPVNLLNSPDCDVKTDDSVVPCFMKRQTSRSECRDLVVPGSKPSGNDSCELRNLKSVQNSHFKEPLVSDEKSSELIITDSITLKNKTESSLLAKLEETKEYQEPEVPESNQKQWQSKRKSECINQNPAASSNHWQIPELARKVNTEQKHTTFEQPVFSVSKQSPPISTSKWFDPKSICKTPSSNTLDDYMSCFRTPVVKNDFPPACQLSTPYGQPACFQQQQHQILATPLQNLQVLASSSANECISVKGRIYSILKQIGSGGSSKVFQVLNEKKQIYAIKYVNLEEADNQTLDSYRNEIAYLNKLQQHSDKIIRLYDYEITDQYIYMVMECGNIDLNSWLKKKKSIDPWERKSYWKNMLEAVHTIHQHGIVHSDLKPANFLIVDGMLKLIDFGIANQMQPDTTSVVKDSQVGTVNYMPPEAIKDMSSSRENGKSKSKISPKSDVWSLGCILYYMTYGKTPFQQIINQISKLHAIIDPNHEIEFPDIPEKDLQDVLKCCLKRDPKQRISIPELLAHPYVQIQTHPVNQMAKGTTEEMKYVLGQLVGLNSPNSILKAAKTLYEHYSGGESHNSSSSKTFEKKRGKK
Description: Mps-1 kinase assay with 2 mM ATP (TR-FRET). In general terms: Time-resolved FRET reads energy transfer from a long-lived donor to a nearby acceptor.

The target of data set [3] is T1, Mps-1 kinase. Kind of data set: Mps-1 kinase assay with 10 μM ATP (TR-FRET).

Some results are limits rather than exact numbers.

In the case of `CCOc1cc(C(=O)NCC(C)(C)O)ccc1Nc1nc2ccc(-c3ccc(NC(=O)Cc4ccc(F)cc4)cc3)cn2n1` [Example 01.17, 3-ethoxy-4-{[6-(4-{[(4-fluorophenyl)acetyl]amino}phenyl)[1,2,4]triazolo-[1,5-α]pyridin-2-yl]amino}-N-(2-hydroxy-2-methylpropyl)benzamide], the “Hydrolysis at pH 2; Decay in % after 24 h” value (“Hydrolysis … in % after 24 h” below) in data set [1] is listed as under 10%. The IC50 against Mps-1 kinase [2] and at Mps-1 kinase [3] was at most 1 nM each time.
As for `CCCOc1cc(C(=O)N(CC)CC)ccc1Nc1nc2ccc(-c3ccc(NC(=O)Cc4ccc(F)cc4)cc3)cn2n1` [Example 01.23, N,N-diethyl-4-{[6-(4-{[(4-fluorophenyl)acetyl]amino}phenyl)[1,2,4]triazolo-[1,5-α]pyridin-2-yl]amino}-3-propoxybenzamide], in data set [1], the “Hydrolysis … in % after 24 h” value is recorded as under 10%. Moreover, the IC50 on Mps-1 kinase [2] was 1.1 nM; at Mps-1 kinase [3], at most 1 nM.
Taken in the same sequence, the figures for `CCNC(=O)c1ccc(Nc2nc3ccc(-c4ccc(C(=O)NCc5ccc(F)cc5)cc4)cn3n2)c(OC)c1` [Example 02.20, N-ethyl-4-[(6-{4-[(4-fluorobenzyl)carbamoyl]phenyl}[1,2,4]triazolo[1,5-α]-pyridin-2-yl)amino]-3-methoxybenzamide] were under 10%, 1.7 nM and at most 1 nM.
`CCOc1cc(C(=O)NCCS(C)(=O)=O)ccc1Nc1nc2ccc(-c3ccc(C(=O)NCc4ccc(F)cc4)cc3)cn2n1` [Example 02.19, 3-ethoxy-4-[(6-{4-[(4-fluorobenzyl)carbamoyl]phenyl}[1,2,4]triazolo[1,5-α]pyridin-2-yl)amino]-N-[2-(methylsulfonyl)ethyl]benzamide]: the “Hydrolysis … in % after 24 h” value in data set [1] is on record as under 10%. For the same compound, the IC50 at Mps-1 kinase [2] and against Mps-1 kinase [3] was at most 1 nM throughout.
With `CCOc1cc(C(=O)N(C)CCO)ccc1Nc1nc2ccc(-c3ccc(NC(=O)Cc4ccc(F)cc4)cc3)cn2n1` [Example 01.19, 3-ethoxy-4-{[6-(4-{[(4-fluorophenyl)acetyl]amino}phenyl)[1,2,4]triazolo-[1,5-α]pyridin-2-yl]amino}-N-(2-hydroxyethyl)-N-methylbenzamide], in data set [1], the “Hydrolysis … in % after 24 h” value is listed as under 10%. The IC50 against Mps-1 kinase [2] and on Mps-1 kinase [3] was at most 1 nM in each case.
For `CCNC(=O)c1ccc(Nc2nc3ccc(-c4ccc(NC(=O)Cc5ccc(F)cc5)cc4)cn3n2)c(OCC)c1` [Example 01.16, 3-ethoxy-N-ethyl-4-{[6-(4-{[(4-fluorophenyl)acetyl]amino}phenyl)[1,2,4]-triazolo[1,5-α]pyridin-2-yl]amino}benzamide], the “Hydrolysis … in % after 24 h” value in data set [1] is given as under 10%. Moreover, the IC50 against Mps-1 kinase [2] and against Mps-1 kinase [3] was at most 1 nM each time.
`CCOc1cc(C(=O)NCC(C)(C)O)ccc1Nc1nc2ccc(-c3ccc(C(=O)NCc4ccc(F)cc4)cc3)cn2n1` [Example 02.7, 3-ethoxy-4-[(6-{4-[(4-fluorobenzyl)carbamoyl]phenyl}[1,2,4]triazolo[1,5-α]pyridin-2-yl)amino]-N-(2-hydroxy-2-methylpropyl)benzamide]: the “Hydrolysis … in % after 24 h” value in data set [1] is reported as under 10%. The IC50 against Mps-1 kinase [2] and against Mps-1 kinase [3] was at most 1 nM in each case.
As to `Cc1cc(N(C)C)ccc1Nc1nc2ccc(-c3ccc(C(=O)NCc4ccc(F)cc4)cc3)cn2n1` [Example 02.24, 4-(2-{[4-(dimethylamino)-2-methylphenyl]amino}[1,2,4]triazolo[1,5-α]-pyridin-6-yl)-N-(4-fluorobenzyl)benzamide], in data set [1], the “Hydrolysis … in % after 24 h” value is recorded as under 10%. Besides, the results for the IC50 at Mps-1 kinase [2] and on Mps-1 kinase [3] were 5.9 nM and at most 1 nM, respectively.
For `CCOc1cc(C(=O)NCCO)ccc1Nc1nc2ccc(-c3ccc(C(=O)NCC4CC4)cc3)cn2n1` [Example 06.3, 4-[(6-{4-[(cyclopropylmethyl)carbamoyl]phenyl}[1,2,4]triazolo[1,5-α]-pyridin-2-yl)amino]-3-ethoxy-N-(2-hydroxyethyl)benzamide] the same measures were under 10%, 21 nM and at most 1 nM.
`CCOc1cc(C(=O)NCCS(C)(=O)=O)ccc1Nc1nc2ccc(-c3ccc(NC(=O)Cc4ccc(F)cc4)cc3)cn2n1` [Example 01.28, 3-ethoxy-4-{[6-(4-{[(4-fluorophenyl)acetyl]amino}phenyl)[1,2,4]triazolo-[1,5-α]pyridin-2-yl]amino}-N-[2-(methylsulfonyl)ethyl]benzamide]: the “Hydrolysis … in % after 24 h” value in data set [1] is listed as under 10%. Besides, the IC50 on Mps-1 kinase [2] and against Mps-1 kinase [3] was at most 1 nM throughout.
Take `COc1cc(C(=O)NCCO)ccc1Nc1nc2ccc(-c3ccc(NC(=O)Cc4ccc(F)cc4)cc3)cn2n1` [Example 01.6, 4-{[6-(4-{[(4-fluorophenyl)acetyl]amino}phenyl)[1,2,4]triazolo[1,5-α]-pyridin-2-yl]amino}-N-(2-hydroxyethyl)-3-methoxybenzamide]: the “Hydrolysis … in % after 24 h” value in data set [1] is under 10%. In addition, the IC50 against Mps-1 kinase [2] and against Mps-1 kinase [3] was at most 1 nM throughout.
As to `COc1cc(C(=O)NCC(C)(C)O)ccc1Nc1nc2ccc(-c3ccc(NC(=O)Cc4ccc(F)cc4)cc3)cn2n1` [Example 01.12, 4-{[6-(4-{[(4-fluorophenyl)acetyl]amino}phenyl)[1,2,4]triazolo[1,5-α]-pyridin-2-yl]amino}-N-(2-hydroxy-2-methylpropyl)-3-methoxybenzamide], in data set [1], the “Hydrolysis … in % after 24 h” value is under 10%. In addition, the IC50 at Mps-1 kinase [2] and against Mps-1 kinase [3] was at most 1 nM each time.
Consider `COc1cc(C(=O)NC(C)(C)C)ccc1Nc1nc2ccc(-c3ccc(NC(=O)Cc4ccc(F)cc4)cc3)cn2n1` [Example 01.5, N-tert-butyl-4-{[6-(4-{[(4-fluorophenyl)acetyl]amino}phenyl)[1,2,4]-triazolo[1,5-α]pyridin-2-yl]amino}-3-methoxybenzamide], for which the “Hydrolysis … in % after 24 h” value in data set [1] is given as under 10%. Also, the IC50 against Mps-1 kinase [2] and at Mps-1 kinase [3] was at most 1 nM in each case.
In the case of `CCOc1cc(C(=O)NC(C)(C)CO)ccc1Nc1nc2ccc(-c3ccc(C(=O)NCc4ccc(F)cc4)cc3)cn2n1` [Example 02.3, 3-ethoxy-4-[(6-{4-[(4-fluorobenzyl)carbamoyl]phenyl}[1,2,4]triazolo[1,5-α]pyridin-2-yl)amino]-N-(1-hydroxy-2-methylpropan-2-yl)benzamide], the “Hydrolysis … in % after 24 h” value in data set [1] is under 10%. Further, the IC50 against Mps-1 kinase [2] and at Mps-1 kinase [3] was at most 1 nM throughout.
Regarding `O=C(Cc1ccc(F)cc1)Nc1ccc(-c2ccc3nc(Nc4ccc(C(=O)NCC(F)(F)F)cc4OCC(F)(F)F)nn3c2)cc1` [Example 01.27, 4-{[6-(4-{[(4-fluorophenyl)acetyl]amino}phenyl)[1,2,4]triazolo[1,5-α]-pyridin-2-yl]amino}-3-(2,2,2-trifluoroethoxy)-N-(2,2,2-trifluoroethyl)-benzamide], the “Hydrolysis … in % after 24 h” value in data set [1] is recorded as under 10%. Besides, the IC50 against Mps-1 kinase [2] and on Mps-1 kinase [3] was at most 1 nM each time.
Regarding `COc1cc(C(=O)NC(C)(C)CO)ccc1Nc1nc2ccc(-c3ccc(C(=O)NCc4ccc(F)cc4)cc3)cn2n1` [Example 02.8, 4-[(6-{4-[(4-fluorobenzyl)carbamoyl]phenyl}[1,2,4]triazolo[1,5-α]pyridin-2-yl)amino]-N-(1-hydroxy-2-methylpropan-2-yl)-3-methoxybenzamide], in data set [1], the “Hydrolysis … in % after 24 h” value is listed as under 10%. Moreover, the IC50 against Mps-1 kinase [2] was 1.5 nM; against Mps-1 kinase [3], at most 1 nM.
Turning to `COc1ccc(Nc2nc3ccc(-c4ccc(C(=O)NCc5ccc(F)cc5)cc4)cn3n2)c(OC)c1` [Example 02.16, 4-{2-[(2,4-dimethoxyphenyl)amino][1,2,4]triazolo[1,5-α]pyridin-6-yl}-N-(4-fluorobenzyl)benzamide], the “Hydrolysis … in % after 24 h” value in data set [1] is recorded as under 10%. In addition, the IC50 against Mps-1 kinase [2] was 3.8 nM; on Mps-1 kinase [3], at most 1 nM.
With `CCOCCNC(=O)c1ccc(Nc2nc3ccc(-c4ccc(NC(=O)Cc5ccc(F)cc5)cc4)cn3n2)c(OC)c1` [Example 01.7, N-(2-ethoxyethyl)-4-{[6-(4-{[(4-fluorophenyl)acetyl]amino}phenyl)[1,2,4]-triazolo[1,5-α]pyridin-2-yl]amino}-3-methoxybenzamide], the “Hydrolysis … in % after 24 h” value in data set [1] is listed as under 10%. In addition, the IC50 against Mps-1 kinase [2] and against Mps-1 kinase [3] was at most 1 nM throughout.

As usually defined, the IC50 is the concentration at which inhibition is half-maximal. Low readings indicate greater potency in that assay, high ones weaker potency in that assay.
